The results in this text go back to patent US20090305244A1, “Selection, Propagation and Use of Mosaic Aneuploid Stem Cells” (The Scripps Research Institute, priority 2005, published 2009).

Assay [1] concerns Mouse ESC. The assay can be described thus: Chromosome counts of ESCs treated with taxol during PA6 co-culture differentiation. The class given is cell-based. Particulars: FIG. 3. The text has this:
(§1) A key attribute of HESCs is their ultimate ability to differentiate into normal, mature cells. There is ample evidence that the differentiation of ES cells can be manipulated to give rise to enriched populations of neuronal cells. Stromal PA6 cells, when used as feeders, promote neural differentiation by inducing mouse ES colonies to become Tuj-1-positive and with robust neuritogenesis (Kawasaki et al., 2000). To examine the differentiation potential of anueploid vs. euploid cells, mammalian ESCs were treated with (aneuploid) or without (euploid) taxol and were examined for their ability to differentiate into neurons when cocultured with PA6 cells. Following 1 week of differentiation, 55% of taxol treated cells had gained chromosomes (FIG. 3).
(§2) Mouse ESC were co-cultured with PA6 cells (Kawasaki et al., 2002) for 1 week under differentiation conditions (DMEM/F12 Glutamax (Gibco, Carlsbad, Calif.), 10% “KNOCKOUT” serum replacement (Gibco), 0.1 mM non-essential aminoacids (Gibco) and 0.1 mM β-mercaptoethanol (Gibco). Cells were treated with taxol (Sigma) at a concentration of 2.5 nM.
HESC Chromosome spreads were obtained by standard protocols (Barch et al., 1997; Rehen et al., 2001). […]
For each sample, 40 metaphase spreads were captured and analyzed by SKY and 70 metaphase spreads counterstained with DAPI were captured for aneuploidy quantification.

Assay [2] has as its system Mouse ESC. The experiment in a line: Neuronal differentiation of ESCs co-cultured with PA6 cells (tuj1 staining). The class given is cell-based. Particulars: taxol 2.5 nM versus without taxol; PA6 co-culture 1 week; FIG. 4.
From the text: as §1, §2
Immunofluorescence staining was performed as previously described (Gage et al., 1995), using α-β-tubulin-III (Tuj-1; 1/1000, Covance). Secondary antibodies were purchased from Jackson ImmunoResearch.

Entries after “also recorded” stand apart in the source; their conditions may differ.

Take `CC(=O)O[C@H]1C(=O)[C@@]2(C)[C@H]([C@H](OC(=O)c3ccccc3)[C@]3(O)C[C@H](OC(=O)[C@H](O)[C@@H](NC(=O)c4ccccc4)c4ccccc4)C(C)=C1C3(C)C)[C@]1(OC(C)=O)CO[C@@H]1C[C@@H]2O` [taxol]: the “induction of aneuploidy (chromosome counts)” value in assay [1] (ESCs on PA6 cells treated with taxol for 6 days) is reported as “induces aneuploidy, specifically hyperploidy”. Besides, in assay [1] (taxol 2.5 nM, following 1 week of differentiation on PA6 cells), the “taxol treated cells that had gained chromosomes” value was determined as 55%. Also, in assay [2], the “number of neuronally differentiated colonies (tuj1 staining) / neuronal differentiation potential” value was “significantly reduces neuronal differentiation potential; also recorded: significant decrease”.
